# Results as given in patent US9681661B2, “Method of controlling parasitic weeds with mixtures comprising herbicidal acetolactate synthase inhibitors and plant growth regulators” (BASF Agrochemical Products B.V., priority 2011, dated 2017).
# Experiments:
# [1] = tested on: Orobanche sp. (ORASS); experiment: Field experiment: delay of weed emergence and number of Orobanche plants per host plant in imazamox tolerant sunflower; type: in vivo; settings: Imazamox 30 g/ha at BBCH 14-15 and 20 g/ha at BBCH 16-18, Prohexadione-Ca 60 g/ha at BBCH 14-15 and 40 g/ha at BBCH 16-18; for first visible emergence of orobanche (DAT): untreated 22
# [2] = tested on: sunflower; experiment: Field experiment: yield of sunflower seeds under Orobanche infestation; type: in vivo, Helianthus annuus L.; settings: Imazamox 30 g/ha at BBCH 14-15 and 20 g/ha at BBCH 16-18; Prohexadione-Ca 60 g/ha at BBCH 14-15 and 40 g/ha at BBCH 16-18; untreated 1127
# [3] = tested on: Orobanche cumana (ORACE); experiment: Field experiment: herbicidal activity against natural Orobanche cumana infestation in sunflower, postemergence treatments; type: in vivo; settings: Imazamox 50 and/or Prohexadione-Ca 100 g a.i./ha total
# Text: Host test plants were, uniform and homogeneous with respect to age, cultivar, and row spacing and distance in the row. Plot size 2.8 m×10 m-4 rows per plot. Test area was kept weed free of conventional weeds (monocotyledon and dicotyledonous weeds) by hand hoeing. Natural infestations of parasitic weeds were present in the soil of the test areas. Postemergence treatments where performed with up to 4 application timings regarding the growth stage of the host plant. Application timings are specified with M, N, O, and P and related to the following growth stages of the host test plants according to the BBCH-scale” Lancashire, […] Boom, E. Weber and A. Witzenberger, 1991: A uniform decimal code for growth stages of crops and weeds. Ann. appl. […] Sequential application were performed with the solo active components and compared to the respective mixture. The respectively stated components A) and B) were used as commercially available formulations and, with addition of a solvent system, introduced into the spray medium used for applying the active composition. In the examples, the spray medium used was water. […] The test period extended over 1 to 4 month. During this time, the plants were tended, and their response to the individual treatments was evaluated. Evaluation was carried out using a scale from 0 to 100 to express activity (in %). 100% means no emergence of the parasitic plants, or complete destruction of at least the above-ground parts, and 0% means no damage or normal course of growth of the parasitic plants. Good herbicidal activity is given at values of at least 70, and very good herbicidal activity is given at values of at least 85. In the examples below, using the method of S. R. Colby (1967) “Calculating synergistic and antagonistic responses of herbicide combinations”, Weeds 15, p. 22ff., the value E, which is expected if the activity of the individual active compounds is only additive, was calculated. E=X+Y-(X·Y/100) • where • X=percent activity using active component A) at an application rate a; • Y=percent activity using active component B) at an application rate b; • E=expected activity (in %) by A)+B) at application rates a+b. If the value found experimentally is higher than the value E calculated according to Colby, a synergistic effect is present. The herbicidal activity of the tested compositions against Orobanche cumana (ORACE) according to the invention is compiled in table V.
# [4] = tested on: Orobanche sp. (ORASS); experiment: Impact of host infestation with Orobanche, tank mixture versus single application, score 1 to 10; type: in vivo; settings: 21 days after treatment; application at BBCH 16-18; Imazamox 15 g/ha, Prohexadione-Ca 75 g/ha; value 1 (no infestation) to 10 (high negative impact)
# Text: Seeds of sunflower (Helianthus annuus L.) where sown as host test plants using small scale field experiment equipment. Host test plants were, uniform and homogeneous with respect to age, cultivar, and row spacing and distance in the row. Plot size 2.8 m×10 m—4 rows per plot. Test area was kept weed free of conventional weeds (monocotyledon and dicotyledonous weeds) by hand hoeing. Natural infestations of parasitic weeds were present in the soil of the test areas. Sequential application were performed with the solo active components and compared to the respective mixture. The respectively stated components A) and B) were used as commercially available formulations and, with addition of a solvent system, introduced into the spray medium used for applying the active composition. In the examples, the spray medium used was water.
# [5] = tested on: Orobanche cumana; settings: reported in EP 0123001 (A1) / Fan et al., Weed Research 2007; cited from earlier work
# [6] = timing M, N, O, P (BBCH growth stage), scale 0 to 100, 100 = no emergence or complete destruction
# [7] = timing M, O (BBCH growth stage), scale 0 to 100
# [8] = timing N, P (BBCH growth stage), scale 0 to 100
molecule,measurement,setting,value
"COCc1cnc(C2=NC(C)(C(C)C)C(=O)N2)c(C(=O)O)c1 (stereo not drawn) [Imazamox, imazamox]",no. of orobanche plants per host plant,[1],15
same,first visible emergence of orobanche (DAT),[1],81 DAT
same,yield of sunflower seeds,[2],2055 kg/ha
same,activity in %,[3]; [6],69%
same,activity in %,[3]; [7],67%
same,activity in %,[3]; [8],68%
same,impact of host infestation with ORASS,[4],4
prohexadione-calcium,no. of orobanche plants per host plant,[1],55
same,first visible emergence of orobanche (DAT),[1],63 DAT
same,yield of sunflower seeds,[2],961 kg/ha
same,activity in %,[3]; [6],2%
same,activity in %,[3]; [7],5%
same,activity in %,[3]; [8],8%
same,impact of host infestation with ORASS,[4],6
same,sunflower resistance against infection with Orobanche cumana,[5],induces sunflower resistance
